“And” between values parts separate entries of the source, which are not always exact repeats. Equal entries are not always repeated.
Tests used:
[1] = tested on: H1299; experiment: MTT viability assay, H1299; assay type: cell-based; conditions: Homo sapiens, NCI-H1299, H1299, 72 h of incubation, mean of three experiments ± SD
Method: (§1) A standard anticancer drug, such as doxorubicin, was simultaneously used at the same concentrations range: 100, 50, 25, 12.5, 6.25, 3.15, 1.56 µM.
(§2) Biological experiments were conducted on a panel of cancer cell lines, adenocarcinoma human alveolar basal epithelial cells (A549), and human non-small cell lung carcinoma cell line (H1299). In order to determine the potential side effects of treatments, research was performed simultaneously on the human bronchial epithelial cells (BEAS-2B) and normal human dermal fibroblasts (NHDF); all cells received were received from the ATCC collections (Manassas, VA, USA). Cells were grown in DMEM F-12 medium (PAA, Warsaw, Poland) supplemented with 10% (v/v) heat-inactivated FBS (Eurx, Gdańsk, Poland) and 100 units/mL penicillin and 100 μg/mL streptomycin (Sigma-Aldrich, Darmstadt, Germany) at 37 °C in a humidified atmosphere with 5% CO2 [23, 27, 29].
(§3) Examination of cytotoxicity using MTT assay is the most convenient and fastest method for screening of cytotoxic action of the drugs. MTT assay is a colorimetric method for evaluation of cell viability based on mitochondrial dehydrogenase enzyme activity. The survival rate of the cells was calculated relative to the control cells, grown in standard conditions. Using this assay, IC50 values were calculated for each cell line treated with standard compounds and drugs. For […] assay, cells were seeded in 96-well plates at 1 × 10^4 cells/well in 0.2 mL completed medium 24 h before drug treatment. In the next step, cells were incubated for 72 h with the compounds (doses: 100; 50; 25; 12.5; 6.25; 3.15 and 1.56 µM) and then were washed three times with PBS (PAA, Laboratories GmbH, Cölbe, Germany). […] The levels of absorbance were measured at a wavelength of λ = 570 nm using a microplate spectrophotometer (Epoch; BioTek, Winooski, VT, USA) and expressed as a % of the untreated control, named the survival fraction [SF] […]

[2] = tested on: BEAS-2B; experiment: MTT viability assay, BEAS-2B; assay type: cell-based; conditions: Homo sapiens, 72 h of incubation, mean of three experiments ± SD
Method: as §1, §2, §3

[3] = tested on: A549; experiment: MTT viability assay, A549; assay type: cell-based; conditions: Homo sapiens, A549, 72 h of incubation, mean of three experiments ± SD
Method: as §1, §2, §3

[4] = tested on: NHDF; experiment: MTT viability assay, NHDF; assay type: cell-based; conditions: Homo sapiens, 72 h of incubation, mean of three experiments ± SD
Method: as §1, §2, §3

[5] = tested on: normal kidney HEK293 cells; set-up: method as in PMID 29123378; conditions: cited from earlier work
[6] = tested on: A549 cells; experiment: Live Cell Analyzer microscopic observation, A549; assay type: cell-based, human; conditions: 72 h; for survival fraction in comparison to the untreated controls: A549, 50 µM, images; for morphological observation: A549, 100 µM
Excerpt: (§4) The cells stayed mostly unattached and floating with some shrunken, which indicates a late stage of apoptosis and necrosis. Using cancer cell lines A549 and H1299, the cellular apoptotic and necrotic death was confirmed, followed by cell cycle cytometric analysis for the sub-G1 fraction (please compare Figure 4 and Figure 5). […] Such observations additionally explained the results of Annexin-V apoptosis assays, where some of the cells, mainly carcinomas, presented an early apoptosis fraction (Figure 6, Figure 7 and Figure 8).
(§5) Microscopic observation and images acquisition with Live Cell Analyzer (JuLI™ Br; NanoEnTek Inc., Seoul, Korea) was used to directly observe on-plate confluence, density, and cell viability and images acquisitions.

[7] = tested on: glioblastoma SNB-19, melanoma C-32, and breast cancer MCF-7 cell lines; set-up: method as in PMID 26950280; conditions: SNB-19, C-32 and MCF-7 cell lines; cited from earlier work
[8] = tested on: A2780 ovarian cancer cells; set-up: method as in PMID 29123378; conditions: A2780, dose-dependent inhibition; cited from earlier work
[9] = tested on: H1299 cells; experiment: Cell cycle analysis via flow cytometry, H1299; assay type: cell-based, human; conditions: H1299, 50 µM, 72 h
Method: (§6) Many drugs work by inhibiting cell proliferation and causing cell cycle blockage. Using flow cytometry, the impact of new compounds on the cell cycle were determined. Cells incubated with compound were also analyzed for cellular death pathways, apoptosis induction, followed by Annexin-V assay. Annexin-V is a protein that binds phosphatidylserine and allows early detection of apoptosis; additionally, iodium propide staining distinguishes it from necrosis. For apoptosis and cell cycle assays the cell cultures were plated in 6-well plates at a confluence of 1 × 10^5 in 2 mL of completed fresh DMEM-F12 medium, 24 h before drugs addition. An Aria III flow cytometer (Becton Dickinson; Franklin Lakes, NJ, USA) was used. The flow cytometry analysis was done on a free Flowing Software 2.5.1 program (by Perttu Terho, the Cell Imaging and Cytometry Core, Turku Bioscience Centre, Turku, Finland, with the support of Biocenter Finland).

[10] = tested on: A549 cells; experiment: Annexin-V apoptosis assay with PI staining, A549; assay type: cell-based, human; conditions: 72 h; for type of cellular death at lower doses: A549, 0.78–12.5 µM; for type of cellular death at higher doses: A549, 25–100 µM
Method: (§7) Followed by Annexin-V apoptosis assay after 72 h of incubation with DPT-1 and DPT-2 at a dose of 50 µM, the type of cellular death is possible to determine (Figure 6 and Figure 7). […] After 72 h of incubation of cells in both controls, some of the early and late apoptotic cells were observable, without necrotic ones.
as §6

[11] = tested on: A549 cells; experiment: Cell cycle analysis via flow cytometry, A549; assay type: cell-based, human; conditions: A549, 50 µM, 72 h
Method: A lowered viability, followed by the MTT assay, could be a perfect indicator of the anticancer potential of drugs. However, this procedure measures the mitochondrial activity of the enzymatic complex. The real cytotoxicity against the antiproliferative action of drugs could be distinguished using the next step procedure, a cytometric cell cycle distribution, compared to the untreated controls. For that reason, the cell cycle was measured, followed by 72 h of incubation with DPT-1 and DPT-2. High doses of phenothiazines (50 µM) arrested the cell cycle at different phases, dependent on the cancer cell line. […] The phenomenon of sub-G1 phase reduction (lowered necrotic/apoptotic and general dead cells fraction), in comparison to the untreated control, could be explained by the cytostatic potential of phenothiazines. […] The MTT estimations of cells viability, calculated from the lowered absorbance, resulted from the antiproliferative and cytostatic role of DPT-1 and DPT-2 in the A549 cell line for S and G2/M cell cycle phases.
Many drugs work by inhibiting cell proliferation and causing cell cycle blockage. Using flow cytometry, the impact of new compounds on the cell cycle were determined. Cells incubated with compound were also analyzed for cellular death pathways, apoptosis induction, followed by Annexin-V assay. […]

[12] = tested on: normal heart H9C2 cells; set-up: method as in PMID 29123378; conditions: cited from earlier work
[13] = tested on: BEAS-2B cells; experiment: Live Cell Analyzer microscopic observation, BEAS-2B; assay type: cell-based, human; conditions: 72 h; for survival fraction in comparison to the untreated controls: 50 µM, images; for morphological observation: 100 µM
Excerpt: as §4, §5

[14] = tested on: normal fibroblast HFF-1 cell line; set-up: method as in PMID 26950280; conditions: cited from earlier work
[15] = tested on: human lung carcinoma A549 and non-small lung carcinoma H1299; experiment: MTT viability assay, summary over lung carcinoma lines; assay type: cell-based; conditions: range over DPT-1 and DPT-2 in A549 and H1299
Excerpt: DPT-1 and DPT-2 initiated a biological response in the investigated cancer models with a different mechanism and at a different rate. Based on these findings, it can be concluded that DPT-1 and DPT-2 have potential as chemotherapeutic agents.
as §3

[16] = tested on: H1299 cells; experiment: Annexin-V apoptosis assay with PI staining, H1299; assay type: cell-based, human; conditions: H1299, 50 µM, 72 h
Method: as §7, §6

[17] = tested on: glioblastoma SNB-19, colorectal carcinoma Caco-2, breast cancer MDA-MB-231, and lung cancer A549 cell lines; set-up: method as in PMID 30981160; conditions: range over SNB-19, Caco-2, MDA-MB-231 and A549; cited from earlier work
[18] = tested on: normal human dermal fibroblasts NHDF; set-up: method as in PMID 30981160; conditions: cited from earlier work

Work on `COc1cccc2c1C(=O)c1c(O)c3c(c(O)c1C2=O)C[C@@](O)(C(=O)CO)C[C@@H]3O[C@H]1C[C@H](N)[C@H](O)[C@H](C)O1` [doxorubicin, reference compound] yielded an IC50 [1] of 7.749 ± 0.004 µM, an IC50 [2] of less than 1.56 µM and an IC50 [3] of 5.289 ± 0.004 µM. It also gave an IC50 [4] greater than 100 µM.

In the case of `c1cnc2c(c1)Nc1ccncc1S2` [DPT-1, 10H-3,6-diazaphenothiazine], the “cytotoxicity compared with A2780” value [5] is given as “significantly less cytotoxicity”, the “survival fraction in comparison to the untreated controls” value (from here on “survival fraction in comparison”) [6] is given as 5–30% and the morphological observation [6] is given as “typical morphological changes for cellular death”. The IC50 [7] was 0.46 µg/mL and 0.72 µg/mL, the IC50 [8] was 0.62 µM and the cell cycle effect [9] was “cell cycle is stopped in the G0/G1-phase”. For the same compound, the “cells apoptotic (late apoptotic fraction, Annexin-V+/PI+)” value ([10]; A549, 50 µM) was roughly 90%, the “type of cellular death” value ([10]; A549, 50 µM) was “pro-apoptotic activity” and the “type of cellular death at lower doses” value [10] was “necrosis is visible”. The “type of cellular death at higher doses” value [10] was “induced cellular death via an apoptosis pathway”, the cell cycle arrest [11] was “S and G2/M arrest” and the “cytotoxicity compared with A2780” value [12] was “significantly less cytotoxicity”. The IC50 [1] was 2.515 ± 0.005 µM, the IC50 [2] was 2.468 ± 0.01 µM and the IC50 [3] was 1.526 ± 0.004 µM. The “survival fraction in comparison” value [13] was 5–30%, the morphological observation [13] was “typical morphological changes for cellular death” and the “action against normal cells” value [14] was “non-toxic action”. For the same compound, the IC50 [15] was 1.52 to 12.9 µM, the “cells apoptotic (late apoptotic fraction, Annexin-V+/PI+)” value [16] was roughly 90% and the “type of cellular death” value [16] was “pro-apoptotic activity”. For the same compound, the IC50 [4] was 2.246 ± 0.01 µM.

For `CN(C)CCCN1c2cnc3ccccc3c2Sc2cc3ccccc3nc21` [DPT-2, 7-(3′-dimethylaminopropyl)diquinothiazine], the “survival fraction in comparison” value [6] was 5–30%, the morphological observation [6] was “typical morphological changes for cellular death” and the cell cycle effect [9] was “strong cytotoxic effect”. The “tested population necrotic (Annexin-V−/PI+)” value ([10]; A549, 50 µM) was “circa 30%”, the “type of cellular death” value ([10]; A549, 50 µM) was “induced apoptosis, as well as necrosis” and the “type of cellular death at lower doses” value [10] was “induced early apoptosis”. For the same compound, the “type of cellular death at higher doses” value [10] was “induced toxic, necrotic death”, the IC50 [17] was 0.3 to 3.44 µM and the cell cycle arrest [11] was “S and G2/M arrest”. The IC50 [1] was 12.89 ± 0.013 µM, the IC50 [2] was 11.26 ± 0.038 µM and the “cytotoxicity against normal cells” value [18] was “low cytotoxicity”. The IC50 [3] was 3.45 ± 0.054 µM, the “survival fraction in comparison” value [13] was 5–30% and the morphological observation [13] was “typical morphological changes for cellular death”. For the same compound, the IC50 [15] was 1.52 to 12.9 µM, the “tested population necrotic (Annexin-V−/PI+)” value [16] was “circa 30%” and the “type of cellular death” value [16] was “induced apoptosis, as well as necrosis”. It also gave an IC50 [4] of 18.77 ± 0.038 µM.

Source: PMC9413739, “Tri- and Pentacyclic Azaphenothiazine as Pro-Apoptotic Agents in Lung Carcinoma with a Protective Potential to Healthy Cell Lines” (Molecules, 2022)
